Test results from patent US20090099186A1, “INHIBITORS OF VIRAL REPLICATION” (priority 2005, published 2009).

Target: T1, full-length NS3 (1-631) protein (HCV NS3 helicase) (Hepatitis C virus genotype 1a, UniProt P27958)
T1 construct: Recombinant, purified, full-length NS3 (1-631) protein
Experiment: HCV Helicase TR-FRET Unwinding Assay
Assay type: biochemical
Procedure: HCV Helicase TR-FRET Unwinding Assay
Compound potency was assessed by determining the ability of the compound to inhibit DNA unwinding in an in vitro homogeneous time-resolved fluorescence quench assay. The helicase substrate (Perkin Elmer, TruPoint Helicase Substrate) consisted of partially double-stranded DNA, with one oligonucleotide strand labeled with a fluorescent europium chelate and the other strand labeled with the QSY™ 7 quencher. In the presence of helicase and ATP, this DNA is unwound and a large increase in fluorescence is observed. An excess of an unlabeled oligonucleotide (also from Perkin Elmer, TruPoint Helicase Capture Strand) that is complementary to the quencher strand was included in the assay to prevent reannealing of the europium and QSY-labeled strands.
The assay buffer consisted of 25 mM MOPS (pH 7.0), 500 μM MgCl2, and 0.005% (v/v) Triton X-100, with DMSO being present at a final concentration of 2% (v/v). Recombinant, purified, full-length NS3 (1-631) protein was included in these assays at a final concentration of 2.5 nM. Compound was incubated with NS3 protein for 5 minutes in a 384-well white Proxiplate™ (Perkin Elmer) prior to the addition of TruPoint Helicase Substrate (4 nM final concentration), TruPoint Helicase Capture Strand (15 nM final concentration), and ATP (100 μM final concentration). The final reaction volume was 20 μL. Immediately after the addition of the substrates and capture strand, the initial rates of the unwinding reactions were determined at room temperature via an Envision (Perkin Elmer) plate reader. The rates of reactions containing test compound were compared to those lacking test compound in order to evaluate compound potency. IC50 values were determined using the curve-fitting software XLfit (IDBS).

[1] = Table 4, inhibition of DNA unwinding, 2.5 nM NS3, 100 μM ATP
[2] = second TR-FRET IC50 column (c2) of Table 4, same head as the first, inhibition of DNA unwinding

T1 sequence (P27958 1027-1657 T1100M/T1173A/K1247Q/A1303G/S1327L/G1556E/R1608W): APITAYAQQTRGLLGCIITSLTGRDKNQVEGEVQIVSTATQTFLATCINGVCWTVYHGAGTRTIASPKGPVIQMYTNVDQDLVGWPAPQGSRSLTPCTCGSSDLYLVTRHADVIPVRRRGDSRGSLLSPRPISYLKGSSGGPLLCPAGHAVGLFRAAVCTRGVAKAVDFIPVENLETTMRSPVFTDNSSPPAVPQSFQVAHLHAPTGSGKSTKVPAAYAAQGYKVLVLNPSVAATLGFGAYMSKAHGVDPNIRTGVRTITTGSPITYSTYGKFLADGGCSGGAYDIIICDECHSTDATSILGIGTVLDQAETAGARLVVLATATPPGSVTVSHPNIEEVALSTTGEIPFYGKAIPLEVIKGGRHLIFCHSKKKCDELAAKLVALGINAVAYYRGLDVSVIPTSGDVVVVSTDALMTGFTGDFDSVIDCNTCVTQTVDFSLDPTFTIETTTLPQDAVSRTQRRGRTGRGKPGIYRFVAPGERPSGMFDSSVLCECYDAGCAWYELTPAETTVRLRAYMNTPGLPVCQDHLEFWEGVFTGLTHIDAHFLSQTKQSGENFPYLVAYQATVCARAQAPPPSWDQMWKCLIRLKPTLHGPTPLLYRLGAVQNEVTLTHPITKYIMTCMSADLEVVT

Compound | IC50 [1] [µM] | IC50 [2] [µM]
O=C(/C=C/c1ccc(Sc2ccc(F)cc2)cc1Cl)Nc1cccc(C(=O)O)c1 [Example 8, (E)-3-(3-(2-chloro-4-(4-fluorophenylthio)phenyl)acrylamido)benzoic acid] | < 10 | < 10
Cc1cc(/C=C/C(=O)NCCC(=O)O)c(Cl)cc1Sc1ccc(F)cc1 [Example 20, (E)-3-(3-(2-chloro-4-(4-fluorophenylthio)-5-methylphenyl)acrylamido)propanoic acid] | 10 to 50 | 10 to 50
COC(=O)C1CCN(C(=O)/C=C/c2ccc(N(C)C)cc2Cl)CC1 [Example 14, (E)-methyl 1-(3-(2-chloro-4-(dimethylamino)phenyl)acryloyl)piperidine-4-carboxylate] | 10 to 50 | 10 to 50
CCN(CC)C(=O)/C=C/c1ccc(Sc2ccccc2OC)cc1Cl [Example 28, (E)-3-(2-chloro-4-(2-methoxyphenylthio)phenyl)-N,N-diethylacrylamide] | 10 to 50 | 10 to 50
COc1ccccc1Sc1ccc(/C=C/C(=O)NCCC(=O)O)c(Cl)c1 [Example 29, (E)-3-(3-(2-chloro-4-(2-methoxyphenylthio)phenyl)acrylamido)propanoic acid] | 10 to 50 | 10 to 50
O=C(/C=C/c1ccccc1Cl)N1Cc2ccccc2C1 [Example 34, (E)-3-(2-chlorophenyl)-1-(isoindolin-2-yl)prop-2-en-1-one] | 10 to 50 | 10 to 50
O=C(/C=C/c1ccc(Sc2ccc(F)cc2)cc1Cl)N1CCCCC1 [Example 2, (E)-3-(2-chloro-4-(4-fluorophenylthio)phenyl)-1-(piperidin-1-yl)prop-2-en-1-one] | < 10 | < 10
Cc1cc(/C=C/C(=O)N2CCC(C(=O)O)CC2)c(Cl)cc1Sc1ccc(F)cc1 [Example 22, (E)-1-(3-(2-chloro-4-(4-fluorophenylthio)-5-methylphenyl)acryloyl)piperidine-4-carboxylic acid] | 10 to 50 | < 10
COc1ccccc1Sc1ccc(/C=C/C(=O)N2CCC(C(=O)O)CC2)c(Cl)c1Cl [Example 32D, (E)-1-(3-(2,3-dichloro-4-(2-methoxyphenylthio)phenyl)acryloyl)piperidine-4-carboxylic acid] | 10 to 50 | 10 to 50
O=C(O)C1CCN(C(=O)/C=C/c2ccc(Sc3ccc(F)cc3)cc2C(F)(F)F)CC1 [Example 31B, (E)-1-(3-(4-(4-fluorophenylthio)-2-(trifluoromethyl)phenyl)acryloyl)piperidine-4-carboxylic acid] | 10 to 50 | 10 to 50
COc1ccccc1Sc1ccc(/C=C/C(=O)NCCC2CCN(C)C2)c(Cl)c1 (stereo not shown) [Example 25, (E)-3-(2-chloro-4-(2-methoxyphenylthio)phenyl)-N-(2-(1-methylpyrrolidin-3-yl)ethyl)acrylamide] | 10 to 50 | 10 to 50
Cc1cc(/C=C/C(=O)N2CCOCC2)c(Cl)cc1Sc1ccc(F)cc1 [Example 23, (E)-3-(2-chloro-4-(4-fluorophenylthio)-5-methylphenyl)-1-morpholinoprop-2-en-1-one] | 10 to 50 | 10 to 50
O=C(/C=C/c1ccccc1Cl)Nc1ccccc1 [Example 35, (E)-3-(2-chlorophenyl)-N-phenylacrylamide] | 10 to 50 | 10 to 50
Cc1cc(/C=C/C(=O)Nc2cccc(C(=O)O)c2)c(Cl)cc1Sc1ccc(F)cc1 [Example 21, (E)-3-(3-(2-chloro-4-(4-fluorophenylthio)-5-methylphenyl)acrylamido)benzoic acid] | < 10 | < 10
COc1ccccc1Sc1ccc(/C=C/C(=O)N2CCC(N3CCCC3)CC2)c(Cl)c1 [Example 30, (E)-3-(2-chloro-4-(2-methoxyphenylthio)phenyl)-1-(4-(pyrrolidin-1-yl)piperidin-1-yl)prop-2-en-1-one] | 10 to 50 | 10 to 50
Cc1cc(/C=C/C(=O)N2CCN(C(=O)c3ccoc3)CC2)c(Cl)cc1Sc1ccc(F)cc1 [Example 17, (E)-3-(2-chloro-4-(4-fluorophenylthio)-5-methylphenyl)-1-(4-(furan-3-carbonyl)piperazin-1-yl)prop-2-en-1-one] | 10 to 50 | 10 to 50
CCN(CC)C(=O)/C=C/c1ccc(Sc2ccc(F)cc2)cc1Cl [Example 4, (E)-3-(2-chloro-4-(4-fluorophenylthio)phenyl)-N,N-diethylacrylamide] | 10 to 50 | 10 to 50
Cc1cc(/C=C/C(=O)N2CCCCC2)c(Cl)cc1Sc1ccc(F)cc1 [Example 16G, (E)-3-(2-chloro-4-(4-fluorophenylthio)-5-methylphenyl)-1-(piperidin-1-yl)prop-2-en-1-one] | 10 to 50 | 10 to 50

Compound | IC50 [1] [µM] | IC50 [2] [µM]
COC(=O)C1CCN(C(=O)/C=C/c2ccc(Sc3ccc(F)cc3)cc2Cl)CC1 [Example 5, (E)-methyl 1-(3-(2-chloro-4-(4-fluorophenylthio)phenyl)acryloyl)piperidine-4-carboxylate] | 10 to 50 | 10 to 50
COc1ccccc1Sc1ccc(/C=C/C(=O)N2CCN(C(=O)c3ccoc3)CC2)c(Cl)c1 [Example 27, (E)-3-(2-chloro-4-(2-methoxyphenylthio)phenyl)-1-(4-(furan-3-carbonyl)piperazin-1-yl)prop-2-en-1-one] | 10 to 50 | 10 to 50
COc1ccccc1Sc1ccc(/C=C/C(=O)N2CCC(C(=O)O)CC2)c(Cl)c1 [Example 26, (E)-1-(3-(2-chloro-4-(2-methoxyphenylthio)phenyl)acryloyl)piperidine-4-carboxylic acid] | 10 to 50 | 10 to 50
O=C(O)C1CCN(C(=O)/C=C/c2ccc(Sc3ccc(F)cc3)cc2Cl)CC1 [Example 6] | 10 to 50 | 10 to 50
CCN(CC)C(=O)/C=C/c1cc(C)c(Sc2ccc(F)cc2)cc1Cl [Example 18, (E)-3-(2-chloro-4-(4-fluorophenylthio)-5-methylphenyl)-N,N-diethylacrylamide] | 10 to 50 | 10 to 50
O=C(/C=C/c1ccc(Sc2ccc(F)cc2)cc1Cl)N1CCN(C(=O)c2ccoc2)CC1 [Example 1B, (E)-3-(2-chloro-4-(4-fluorophenylthio)phenyl)-1-(4-(furan-3-carbonyl)piperazin-1-yl)prop-2-en-1-one] | 10 to 50 | 10 to 50
CN(C)c1ccc(/C=C/C(=O)NCCN2CCOCC2)c(Cl)c1 [Example 10] | 10 to 50 | 10 to 50
CN(C)c1ccc(/C=C/C(=O)N2CCOCC2)c(Cl)c1 [Example 13, (E)-3-(2-chloro-4-(dimethylamino)phenyl)-1-morpholinoprop-2-en-1-one] | 10 to 50 | 10 to 50
O=C(/C=C/c1ccccc1Cl)NCCO [Example 33] | 10 to 50 | 10 to 50
CN(C)c1ccc(/C=C/C(=O)NCCCn2ccnc2)c(Cl)c1 [Example 11, (E)-N-(3-(1H-imidazol-1-yl)propyl)-3-(2-chloro-4-(dimethylamino)phenyl)acrylamide] | 10 to 50 | 10 to 50
CCOC(=O)CCNC(=O)/C=C/c1cc(C)c(Sc2ccc(F)cc2)cc1Cl [Example 19, (E)-ethyl 3-(3-(2-chloro-4-(4-fluorophenylthio)-5-methylphenyl)acrylamido)propanoate] | 10 to 50 | 10 to 50
CN(C)c1ccc(/C=C/C(=O)N2CCN(C(=O)c3ccoc3)CC2)c(Cl)c1 [Example 12, (E)-3-(2-chloro-4-(dimethylamino)phenyl)-1-(4-(furan-3-carbonyl)piperazin-1-yl)prop-2-en-1-one] | 10 to 50 | 10 to 50
CN(C)c1ccc(/C=C/C(=O)N2CCC(C(=O)O)CC2)c(Cl)c1 [Example 15] | 10 to 50 | 10 to 50
O=C(/C=C/c1ccc(Sc2ccc(F)cc2)cc1Cl)N1CCOCC1 [Example 3, (E)-3-(2-chloro-4-(4-fluorophenylthio)phenyl)-1-morpholinoprop-2-en-1-one] | 10 to 50 | 10 to 50
CC(=O)N1CCN(C(=O)/C=C/c2ccc(N(C)C)cc2Cl)CC1 [Example 9B, (E)-1-(4-acetylpiperazin-1-yl)-3-(2-chloro-4-(dimethylamino)phenyl)prop-2-en-1-one] | < 10 | < 10
COC(=O)c1cccc(NC(=O)/C=C/c2ccc(Sc3ccc(F)cc3)cc2Cl)c1 [Example 7, (E)-methyl 3-(3-(2-chloro-4-(4-fluorophenylthio)phenyl)acrylamido)benzoate] | < 10 | < 10
COc1ccccc1Sc1ccc(/C=C/C(=O)NCCCN(C)C)c(Cl)c1 [Example 24B, (E)-3-(2-chloro-4-(2-methoxyphenylthio)phenyl)-N-(3-(dimethylamino)propyl)acrylamide] | 10 to 50 | 10 to 50
